The test system of data set [1] is recombinant NL4-3 virus (Renilla luciferase in nef). The data set can be described thus: HIV cell culture assay (antiviral activity, luciferase readout in MT-2 cells). To be noted: Renilla, NL43. In kind it is cell-based. Put shortly:
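MT-2 cells were infected for 4-5 days with 293T-derived recombinant NL4-3 reporter virus in the presence of serially diluted compound. Antiviral activity was quantified as luciferase activity using a live-cell substrate. EC50 was derived from the median effect equation.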

Data set [2] is described as follows: Compound cytotoxicity, XTT-based colorimetric assay. In kind it is cell-based. To be noted: human; uninfected MT2 cells, day 4, XTT. As to the method:
Compound cytotoxicity and the corresponding CC50 values were determined using the same protocol as described in the antiviral assay except that uninfected cells were used. Cytotoxicity was assessed on day 4 in uninfected MT2 cells by using an XTT (2,3-bis[2-Methoxy-4-nitro-5-sulfophenyl]-2H-tetrazolium-5-carboxyanilide inner salt)-based colorimetric assay (Sigma-Aldrich, St Louis, Mo.).
For orientation: Formazan colour is commonly taken as a measure of viable cells.

Experimental findings from patent US20230013823A1, “INHIBITORS OF HUMAN IMMUNODEFICIENCY VIRUS REPLICATION” (VIV HEALTHCARE UK (No. 5) LIMITED, priority 2019, published 2023) are described below.

As a reminder, the EC50 is the concentration at which the effect is half-maximal. In general, CC50 refers to the concentration at which the toxic effect on the cells reaches its halfway point.

Take `Cn1nc(NS(C)(=O)=O)c2c(Cl)ccc(-n3c([C@H](Cc4cc(F)cc(F)c4)NC(=O)Cn4nc(C(F)F)c5c4C(F)(F)[C@@H]4C[C@H]54)nc4cc(-c5ccn(CC(F)(F)C(F)(F)F)n5)ccc4c3=O)c21` (atropisomer, axis not shown; (P)) [Example 48, N—((S)-1-((3P)-3-(4-chloro-1-methyl-3-(methylsulfonamido)-1H-indazol-7-yl)-4-oxo-7-(1-(2,2,3,3,3-pentafluoropropyl)-1H-pyrazol-3-yl)-3,4-dihydroquinazolin-2-yl)-2-(3,5-difluorophenyl)ethyl)-2-((3bS,4aR)-3-(difluoromethyl)-5,5-difluoro-3b,4,4a,5-tetrahydro-1H-cyclopropa[3,4]cyclopenta[1,2-c]pyrazol-1-yl)acetamide]: the EC50 in data set [1] was 0.091 nM. The compound further yielded a half-maximal cytotoxic concentration (CC50) at 4 days in data set [2] of more than 100 nM.

`Cn1nc(NS(C)(=O)=O)c2c(Cl)ccc(-n3c([C@H](Cc4cc(F)cc(F)c4)NC(=O)Cn4nc(C(F)F)c5c4C(F)(F)[C@@H]4C[C@H]54)nc4cc(-c5ccn(CC(F)(F)C(F)F)n5)ccc4c3=O)c21` (atropisomer, axis not shown; (P)) [Example 47, N—((S)-1-((3P)-3-(4-chloro-1-methyl-3-(methylsulfonamido)-1H-indazol-7-yl)-4-oxo-7-(1-(2,2,3,3-tetrafluoropropyl)-1H-pyrazol-3-yl)-3,4-dihydroquinazolin-2-yl)-2-(3,5-difluorophenyl)ethyl)-2-((3bS,4aR)-3-(difluoromethyl)-5,5-difluoro-3b,4,4a,5-tetrahydro-1H-cyclopropa[3,4]cyclopenta[1,2-c]pyrazol-1-yl)acetamide]: in data set [1], the EC50 was 0.07 nM. In data set [2], this compound registered a CC50 at 4 days of more than 100 nM.

Turning to `Cn1nc(NS(C)(=O)=O)c2c(Cl)ccc(-n3c([C@H](Cc4cc(F)cc(F)c4)NC(=O)Cn4nc(C(F)F)c5c4C(F)(F)[C@@H]4C[C@H]54)nc4cc(-c5cncc(C(F)(F)F)n5)ccc4c3=O)c21` (atropisomer, axis not shown; (P)) [Example 22, N—((S)-1-((3P)-3-(4-chloro-1-methyl-3-(methylsulfonamido)-1H-indazol-7-yl)-4-oxo-7-(6-(trifluoromethyl)pyrazin-2-yl)-3,4-dihydroquinazolin-2-yl)-2-(3,5-difluorophenyl)ethyl)-2-((3bS,4aR)-3-(difluoromethyl)-5,5-difluoro-3b,4,4a,5-tetrahydro-1H-cyclopropa[3,4]cyclopenta[1,2-c]pyrazol-1-yl)acetamide], the EC50 in data set [1] came out at 0.06 nM. The compound also gave a CC50 at 4 days in data set [2] of more than 100 nM.

`Cn1nc(NS(C)(=O)=O)c2c(Cl)ccc(-n3c([C@H](Cc4cc(F)cc(F)c4)NC(=O)Cn4nc(C(F)F)c5c4C(F)(F)[C@H]4C[C@@H]54)nc4cc(-c5ccnn5C5CC5)ccc4c3=O)c21` (atropisomer, axis not shown; (P)) [Example 43, N—((S)-1-((3P)-3-(4-chloro-1-methyl-3-(methylsulfonamido)-1H-indazol-7-yl)-7-(1-cyclopropyl-1H-pyrazol-5-yl)-4-oxo-3,4-dihydroquinazolin-2-yl)-2-(3,5-difluorophenyl)ethyl)-2-((3bS,4aR)-3-(difluoromethyl)-5,5-difluoro-3b,4,4a,5-tetrahydro-1H-cyclopropa[3,4]cyclopenta[1,2-c]pyrazol-1-yl)acetamide]: the concentration for a half-maximal effect (EC50) in data set [1] turned out to be 0.13 nM. In data set [2], this compound displayed a 50% cytotoxic concentration (CC50) at 4 days of more than 100 nM.
